The values that follow come from article PMC9127867, “Analysis of the β-Glucosidase Family Reveals Genes Involved in the Lignification of Stone Cells in Chinese White Pear (Pyrus bretschneideri Rehd.)” (Frontiers in Plant Science, 2022).

The assay concerns the target T1, GST-PbBGLU1 (Pyrus x bretschneideri, UniProt Z9UO32JHD5).
T1 construct: full-length CDS in pGEX4T-1, N-terminal GST tag kept, E. coli BL21(DE3)
T1 sequence (Z9UO32JHD5 522-1019 limits assumed): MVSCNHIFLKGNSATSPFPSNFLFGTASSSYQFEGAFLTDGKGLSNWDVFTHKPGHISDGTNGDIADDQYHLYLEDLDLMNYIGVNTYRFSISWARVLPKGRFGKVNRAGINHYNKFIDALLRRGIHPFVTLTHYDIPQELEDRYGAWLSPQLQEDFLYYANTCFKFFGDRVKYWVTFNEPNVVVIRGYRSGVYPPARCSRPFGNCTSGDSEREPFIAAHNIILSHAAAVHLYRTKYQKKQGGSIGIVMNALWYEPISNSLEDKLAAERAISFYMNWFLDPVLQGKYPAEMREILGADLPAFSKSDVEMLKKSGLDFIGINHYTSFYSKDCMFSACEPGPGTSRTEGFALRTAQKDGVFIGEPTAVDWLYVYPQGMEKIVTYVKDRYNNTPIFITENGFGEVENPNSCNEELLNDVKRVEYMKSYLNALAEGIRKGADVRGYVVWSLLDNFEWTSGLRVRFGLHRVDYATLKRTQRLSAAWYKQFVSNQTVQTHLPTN
The assay can be described thus: HPLC of product, double reciprocal plot. The format is biochemical. Conditions: 35 °C, PBS pH 7.2–7.4, 50 mM MgSO4, 200 mM KCl, 0.1% β-mercaptoethanol. An excerpt:
HPLC of product, double reciprocal plot on GST-PbBGLU1

By Km is commonly meant the substrate concentration at which the rate is half of its maximum.

SMILES strings stand for the structures.

Turning to `COc1cc(/C=C/CO)ccc1O[C@@H]1O[C@H](CO)[C@@H](O)[C@H](O)[C@H]1O` [coniferin], the Km is 103 ± 3.89 µM.
The result for `COc1cc(/C=C/CO)cc(OC)c1O[C@@H]1O[C@H](CO)[C@@H](O)[C@H](O)[C@H]1O` [syringin] reads 101 ± 6.51 µM.
